biological target: human APJ receptor (Homo sapiens (Human), UniProt P35414); test: biochemical; format: biochemical; settings: [35S]GTPγS binding, CHO membranes expressing human APJ receptor; read-out: Activity hAPJ SPA EC50 IP
Outline: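 Membranes of a stable CHO line carrying human APJ (pFLAG-CMV-3) were used in a GTPγS binding format; buffer GDP, MgCl2 and NaCl were optimized, and plates were read after 90 min at RT.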

Sequence of human APJ receptor (P35414 whole entry): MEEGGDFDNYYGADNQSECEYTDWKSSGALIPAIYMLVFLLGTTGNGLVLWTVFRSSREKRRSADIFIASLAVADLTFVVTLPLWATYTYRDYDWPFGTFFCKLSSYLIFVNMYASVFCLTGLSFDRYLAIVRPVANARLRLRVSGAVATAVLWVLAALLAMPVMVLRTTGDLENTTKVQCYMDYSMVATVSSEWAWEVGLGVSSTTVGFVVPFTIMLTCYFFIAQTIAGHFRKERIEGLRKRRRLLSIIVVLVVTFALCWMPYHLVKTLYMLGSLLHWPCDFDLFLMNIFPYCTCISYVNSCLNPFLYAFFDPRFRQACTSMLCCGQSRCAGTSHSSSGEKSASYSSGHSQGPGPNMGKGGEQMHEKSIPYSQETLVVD

Point of comparison: CCO[C@@H](c1ncc(Cl)cn1)[C@H](C)S(=O)(=O)Nc1nnc(-c2ccn(C)n2)n1-c1c(OC)cccc1OC (single isomer, unassigned) [Example 352.0, (1S,2S)-1-(5-chloropyrimidin-2-yl)-N-(4-(2,6-dimethoxyphenyl)-5-(1-methyl-1H-pyrazol-3-yl)-4H-1,2,4-triazol-3-yl)-1-ethoxypropane-2-sulfonamide or (1R,2R)-1-(5-chloropyrimidin-2-yl)-N-(4-(2,6-dimethoxyphenyl)-5-(1-methyl-1H-pyrazol-3-yl)-4H-1,2,4-triazol-3-yl)-1-ethoxypropane-2-sulfonamide], EC50 35 nM. Against it:
- COc1cccc(OC)c1-n1c(NS(=O)(=O)[C@@H](C)[C@H](OC)c2ncc(Cl)cn2)nnc1-c1ccn(C(F)F)n1 [Example 207.0, (1R,2S)-1-(5-chloro-2-pyrimidinyl)-N-(5-(1-(difluoromethyl)-1H-pyrazol-3-yl)-4-(2,6-dimethoxyphenyl)-4H-1,2,4-triazol-3-yl)-1-methoxy-2-propanesulfonamide] — 270-fold lower, 0.13 nM
- COc1cccc(OC)c1-n1c(NS(=O)(=O)[C@@H](C)[C@H](OC)c2ncc(C)cn2)nnc1-c1coc(C)n1 [Example 339.0, (1R,2S)-N-(4-(2,6-dimethoxyphenyl)-5-(2-methyl-1,3-oxazol-4-yl)-4H-1,2,4-triazol-3-yl)-1-methoxy-1-(5-methyl-2-pyrimidinyl)-2-propanesulfonamide] — 17-fold lower, 2.1 nM
- COc1cccc(OC)c1-n1c(NS(=O)(=O)CCc2ccc(Cl)cc2)nnc1-c1csc(C)n1 [Example 149.0, 2-(4-chlorophenyl)-N-(4-(2,6-dimethoxyphenyl)-5-(2-methylthiazol-4-yl)-4H-1,2,4-triazol-3-yl)ethanesulfonamide] — within 1.5-fold, 27 nM
- COc1cccc(OC)c1-n1c(NS(=O)(=O)[C@@H](C)[C@H](C)c2ncc(Cl)cn2)nnc1-c1cc(C)on1 [Example 498.0, (2S,3R)-3-(5-chloropyrimidin-2-yl)-N-(4-(2,6-dimethoxyphenyl)-5-(5-methylisoxazol-3-yl)-4H-1,2,4-triazol-3-yl)butane-2-sulfonamide] — 80-fold lower, 0.44 nM
- COc1ncnc(OC)c1-n1c(NS(=O)(=O)[C@@H](C)[C@H](OC)c2ncc(Cl)cn2)nnc1-c1cnn2ccccc12 [Example 439.0, (1R,2S)-1-(5-chloropyrimidin-2-yl)-N-(4-(4,6-dimethoxypyrimidin-5-yl)-5-(pyrazolo[1,5-a]pyridin-3-yl)-4H-1,2,4-triazol-3-yl)-1-methoxypropane-2-sulfonamide] — 43-fold lower, 0.82 nM
- COc1cccc(OC)c1-n1c(NS(=O)(=O)[C@H](C)Cc2ncc(F)cn2)nnc1-c1nc(C2CC2)cs1 (single isomer, unassigned) [Example 160.0, (R)-N-(5-(4-cyclopropylthiazol-2-yl)-4-(2,6-dimethoxyphenyl)-4H-1,2,4-triazol-3-yl)-1-(5-fluoropyrimidin-2-yl)propane-2-sulfonamide or (S)-N-(5-(4-cyclopropylthiazol-2-yl)-4-(2,6-dimethoxyphenyl)-4H-1,2,4-triazol-3-yl)-1-(5-fluoropyrimidin-2-yl)propane-2-sulfonamide] — 18-fold lower, 2 nM
- COc1cccc(OC)c1-n1c(NS(=O)(=O)[C@@H](C)[C@H](OC)c2ncc(C)cn2)nnc1-c1cc2n(n1)CCC2 [Example 205.0, (1R,2S)-N-(5-(5,6-dihydro-4H-pyrrolo[1,2-b]pyrazol-2-yl)-4-(2,6-dimethoxyphenyl)-4H-1,2,4-triazol-3-yl)-1-methoxy-1-(5-methyl-2-pyrimidinyl)-2-propanesulfonamide] — 12-fold lower, 3 nM
- COc1cccc(OC)c1-n1c(NS(=O)(=O)[C@@H](C)[C@H](OC)c2ncc(Cl)cn2)nnc1-c1noc(C)c1C [Example 515.0, (1R,2S)-1-(5-chloropyrimidin-2-yl)-N-(4-(2,6-dimethoxyphenyl)-5-(4,5-dimethylisoxazol-3-yl)-4H-1,2,4-triazol-3-yl)-1-methoxypropane-2-sulfonamide] — 38-fold lower, 0.93 nM
- COc1cccc(OC)c1-n1c(NS(=O)(=O)[C@@H](C)[C@H](C)c2ncc(Cl)cn2)nnc1-c1cnn2c1CCC2 [Example 445.0, (2S,3R)-3-(5-chloropyrimidin-2-yl)-N-(5-(5,6-dihydro-4H-pyrrolo[1,2-b]pyrazol-3-yl)-4-(2,6-dimethoxyphenyl)-4H-1,2,4-triazol-3-yl)butane-2-sulfonamide] — 390-fold lower, 0.089 nM
- COc1cccc(OC)c1-n1c(NS(=O)(=O)[C@@H](C)[C@H](OC)c2ncc(C)cn2)nnc1-c1n[nH]c2ccccc12 [Example 411.0] — 1.7-fold higher, 58 nM
- COc1cccc(OC)c1-n1c(NS(=O)(=O)[C@H]2CCCNC2)nnc1-c1ccn(C)n1 (mixture of isomers) [Example 263.0, (3R)-N-(4-(2,6-dimethoxyphenyl)-5-(1-methyl-1H-pyrazol-3-yl)-4H-1,2,4-triazol-3-yl)-3-piperidinesulfonamide and (3S)-N-(4-(2,6-dimethoxyphenyl)-5-(1-methyl-1H-pyrazol-3-yl)-4H-1,2,4-triazol-3-yl)-3-piperidinesulfonamide] — 5.1-fold higher, 180 nM
- COc1ccccc1-n1c(NS(=O)(=O)[C@@H](C)[C@H](C)c2ncc(F)cn2)nnc1-c1ccn(C)n1 [Example 269.0, (2S,3R)-3-(5-fluoro-2-pyrimidinyl)-N-(4-(2-methoxyphenyl)-5-(1-methyl-1H-pyrazol-3-yl)-4H-1,2,4-triazol-3-yl)-2-butanesulfonamide] — 4-fold lower, 8.7 nM
- COc1cccc(OC)c1-n1c(NS(=O)(=O)[C@@H](C)[C@H](OC)c2cnc(C)cn2)nnc1-c1cc2n(n1)CCC2 [Example 216.0, (1R,2S)-N-(5-(5,6-dihydro-4H-pyrrolo[1,2-b]pyrazol-2-yl)-4-(2,6-dimethoxyphenyl)-4H-1,2,4-triazol-3-yl)-1-methoxy-1-(5-methyl-2-pyrazinyl)-2-propanesulfonamide] — 9.5-fold lower, 3.7 nM
- COc1cccc(OC)c1-n1c(NS(=O)(=O)[C@@H](C)[C@H](OC)c2ncc(C)cn2)nnc1-c1nn(C)c2ccccc12 [Example 436.0, (1R,2S)-N-(4-(2,6-dimethoxyphenyl)-5-(1-methyl-1H-indazol-3-yl)-4H-1,2,4-triazol-3-yl)-1-methoxy-1-(5-methylpyrimidin-2-yl)propane-2-sulfonamide] — 43-fold lower, 0.81 nM
- CCn1ccc(-c2nnc(NS(=O)(=O)[C@@H](C)[C@H](O)c3ncc(C)cn3)n2-c2c(OC)cccc2OC)n1 [Example 388.0, (1R,2S)-N-(4-(2,6-Dimethoxyphenyl)-5-(1-ethyl-1H-pyrazol-3-yl)-4H-1,2,4-triazol-3-yl)-1-hydroxy-1-(5-methylpyrimidin-2-yl)propane-2-sulfonamide] — 95-fold lower, 0.37 nM
- COc1cccc(OC)c1-n1c(NS(=O)(=O)[C@@H](C)[C@H](OC)c2ncc(Cl)cn2)nnc1-c1cncc(C)n1 [Example 214.0, (1R,2S)-1-(5-chloro-2-pyrimidinyl)-N-(4-(2,6-dimethoxyphenyl)-5-(6-methyl-2-pyrazinyl)-4H-1,2,4-triazol-3-yl)-1-methoxy-2-propanesulfonamide] — 88-fold lower, 0.4 nM
- CO[C@H](c1ncc(Cl)cn1)[C@H](C)S(=O)(=O)Nc1nnc(-c2cnn3c2CCC3)n1C1CC1 [Example 478.0] — 3.2-fold lower, 11 nM
- COc1ccc(S(C)(=O)=O)cc1-n1c(NS(=O)(=O)CCc2ccc(Cl)cc2)nnc1-c1cccs1 [Example 312.0, 2-(4-Chlorophenyl)-N-(4-(2-methoxy-5-(methylsulfonyl)phenyl)-5-(thiophen-2-yl)-4H-1,2,4-triazol-3-yl)ethanesulfonamide] — 2.2-fold higher, 76 nM
- COc1cccc(OC)c1-n1c(NS(=O)(=O)[C@@H](C)[C@H](C)c2ncc(Cl)cn2)nnc1-c1n[nH]c2c1CCCC2 [Example 438.0, (2S,3R)-3-(5-chloropyrimidin-2-yl)-N-(4-(2,6-dimethoxyphenyl)-5-(4,5,6,7-tetrahydro-1H-indazol-3-yl)-4H-1,2,4-triazol-3-yl)butane-2-sulfonamide] — 3.8-fold lower, 9.1 nM
- COc1nccc(-c2nnc(NS(=O)(=O)[C@@H](C)[C@H](C)c3ncc(F)cn3)n2-c2c(OC)cccc2OC)n1 [Example 197.0, (2S,3R)-N-(4-(2,6-dimethoxyphenyl)-5-(2-methoxy-4-pyrimidinyl)-4H-1,2,4-triazol-3-yl)-3-(5-fluoro-2-pyrimidinyl)-2-butanesulfonamide] — 15-fold lower, 2.4 nM
- CCS(=O)(=O)Nc1nnc(-c2cc([C@@H](O)c3ccc(Cl)cc3S(C)(=O)=O)n(C)n2)n1-c1c(OC)cccc1OC [Example 382.0, N-(5-(5-((R)-(4-Chloro-2-(methylsulfonyl)phenyl)(hydroxy)methyl)-1-methyl-1H-pyrazol-3-yl)-4-(2,6-dimethoxyphenyl)-4H-1,2,4-triazol-3-yl)ethanesulfonamide and N-(5-(5-((S)-(4-chloro-2-(methylsulfonyl)phenyl)(hydroxy)methyl)-1-methyl-H-pyrazol-3-yl)-4-(2,6-dimethoxyphenyl)-4H-1,2,4-triazol-3-yl)ethanesulfonamide] — 7.4-fold higher, 260 nM
- COc1cccc(OC)c1-n1c(NS(=O)(=O)[C@H](C)[C@H](O)c2ncc(C)cn2)nnc1-c1nc(C)cs1 (single isomer, unassigned) [Example 316.0, (1R,2R)-N-(4-(2,6-dimethoxyphenyl)-5-(4-methylthiazol-2-yl)-4H-1,2,4-triazol-3-yl)-1-hydroxy-1-(5-methylpyrimidin-2-yl)propane-2-sulfonamide or (1S,2S)-N-(4-(2,6-dimethoxyphenyl)-5-(4-methylthiazol-2-yl)-4H-1,2,4-triazol-3-yl)-1-hydroxy-1-(5-methylpyrimidin-2-yl)propane-2-sulfonamide] — 2.3-fold higher, 81 nM
- COc1cccc(OC)c1-n1c(NS(=O)(=O)[C@@H](C)[C@H](OC)c2ncc(Cl)cn2)nnc1-c1cc(C)[nH]n1 [Example 344.0, (1R,2S)-1-(5-chloro-2-pyrimidinyl)-N-(4-(2,6-dimethoxyphenyl)-5-(5-methyl-1H-pyrazol-3-yl)-4H-1,2,4-triazol-3-yl)-1-methoxy-2-propanesulfonamide] — 56-fold lower, 0.63 nM
